Organism: Rattus norvegicus
Experiment: Open TG-GATES - Regimen: Single
Format: toxicity, organism-based, Sprague-Dawley
Parameters: regimen Single, gender Male, age 6 weeks
Conditions: in vivo, po, route gavage; for APTT / Bas / Eos / Fbg / Hb / Ht / Lym / MCH / MCHC / MCV / Mono / Neu / PT / Plat / RBC / Ret / WBC: tissue Blood; for KIDNEY_L / KIDNEY_R / KIDNEY_TOTAL: tissue Kidney; for LIVER: tissue Liver; for A/G / ALP / ALT / AST / BUN / CRE / Ca / Cl / DBIL / GLC / IP / K / LDH / Na / PL / RALB / TBIL / TC / TG / TP / gamma-GTP: tissue Plasma
[1] = 0 mg/kg, 3 h, dose level Control
[2] = 0 mg/kg, 6 h, dose level Control
[3] = 0 mg/kg, 9 h, dose level Control
[4] = 0 mg/kg, 24 h, dose level Control
[5] = 100 mg/kg, 24 h, dose level Low

## Cc1nnc2n1-c1ccc(Cl)cc1C(c1ccccc1Cl)=NC2 [TRIAZOLAM]
[1]
  TERMINAL_BW: 194.1 g
  APTT: 20.7 s
  Bas: 0%
  Eos: 0.8%
  Fbg: 266.4 mg/dL
  Hb: 13.6 g/dL
  Ht: 41.4%
  Lym: 76%
  MCH: 21.2 pg
  MCHC: 32.8%
  MCV: 64.7 fL
  Mono: 3%
  Neu: 19.2%
  PT: 13.6 s
  Plat: 126 x10_4/uL
  RBC: 640.6 x10_4/ul
  Ret: 9.3%
  WBC: 96.6 x10_2/uL
  KIDNEY_L: 0.8 g
  KIDNEY_R: 0.8 g
  KIDNEY_TOTAL: 1.6 g
  LIVER: 8.3 g
  A/G: 0.9
  ALP: 1477.8 IU/L
  ALT: 39.8 IU/L
  AST: 72.4 IU/L
  BUN: 10.6 mg/dL
  CRE: 0.2 mg/dL
  Ca: 11.3 mg/dL
  Cl: 105.6 meq/L
  DBIL: 0.012 mg/dL
  GLC: 179.2 mg/dL
  IP: 9.1 mg/dL
  K: 4.3 meq/L
  LDH: 100 IU/L
  Na: 140.8 meq/L
  PL: 150.2 mg/dL
  RALB: 2.5 g/dL
  TBIL: 0.062 mg/dL
  TC: 87.8 mg/dL
  TG: 47.6 mg/dL
  TP: 5.2 g/dL
  gamma-GTP: 1.2 IU/L
[2]
  TERMINAL_BW: 191.8 g
  APTT: 17.3 s
  Bas: 0%
  Eos: 0.8%
  Fbg: 258.8 mg/dL
  Hb: 13.6 g/dL
  Ht: 41.3%
  Lym: 81.4%
  MCH: 21.3 pg
  MCHC: 33%
  MCV: 64.7 fL
  Mono: 2.2%
  Neu: 15%
  PT: 13.5 s
  Plat: 133.4 x10_4/uL
  RBC: 639.4 x10_4/ul
  Ret: 8.5%
  WBC: 82 x10_2/uL
  KIDNEY_L: 0.9 g
  KIDNEY_R: 0.9 g
  KIDNEY_TOTAL: 1.7 g
  LIVER: 7.7 g
  A/G: 0.9
  ALP: 1476.8 IU/L
  ALT: 33.6 IU/L
  AST: 72 IU/L
  BUN: 7.8 mg/dL
  CRE: 0.2 mg/dL
  Ca: 10.7 mg/dL
  Cl: 106.8 meq/L
  DBIL: 0.01 mg/dL
  GLC: 177.8 mg/dL
  IP: 9.4 mg/dL
  K: 4.1 meq/L
  LDH: 104.2 IU/L
  Na: 141.8 meq/L
  PL: 138 mg/dL
  RALB: 2.5 g/dL
  TBIL: 0.068 mg/dL
  TC: 75.4 mg/dL
  TG: 51.6 mg/dL
  TP: 5.1 g/dL
  gamma-GTP: 1 IU/L
[3]
  TERMINAL_BW: 192.1 g
  APTT: 17.5 s
  Bas: 0%
  Eos: 0.6%
  Fbg: 271.8 mg/dL
  Hb: 13.2 g/dL
  Ht: 40.4%
  Lym: 77.4%
  MCH: 20.9 pg
  MCHC: 32.7%
  MCV: 64 fL
  Mono: 2%
  Neu: 19.4%
  PT: 13.7 s
  Plat: 112 x10_4/uL
  RBC: 631.8 x10_4/ul
  Ret: 8.8%
  WBC: 96.7 x10_2/uL
  KIDNEY_L: 0.9 g
  KIDNEY_R: 0.9 g
  KIDNEY_TOTAL: 1.7 g
  LIVER: 7.6 g
  A/G: 0.9
  ALP: 1320.2 IU/L
  ALT: 40.6 IU/L
  AST: 75 IU/L
  BUN: 9.2 mg/dL
  CRE: 0.2 mg/dL
  Ca: 10.6 mg/dL
  Cl: 106 meq/L
  DBIL: 0.008 mg/dL
  GLC: 188.4 mg/dL
  IP: 10.4 mg/dL
  K: 4.1 meq/L
  LDH: 79.8 IU/L
  Na: 141.6 meq/L
  PL: 132.4 mg/dL
  RALB: 2.4 g/dL
  TBIL: 0.062 mg/dL
  TC: 71.8 mg/dL
  TG: 40.8 mg/dL
  TP: 5.1 g/dL
  gamma-GTP: 1.2 IU/L
[4]
  TERMINAL_BW: 207 g
  APTT: 20.6 s
  Bas: 0%
  Eos: 1%
  Fbg: 279.8 mg/dL
  Hb: 13.2 g/dL
  Ht: 40.3%
  Lym: 78%
  MCH: 21.1 pg
  MCHC: 32.9%
  MCV: 64.1 fL
  Mono: 3%
  Neu: 16.6%
  PT: 13.1 s
  Plat: 116.7 x10_4/uL
  RBC: 628.2 x10_4/ul
  Ret: 8.3%
  WBC: 87 x10_2/uL
  KIDNEY_L: 0.9 g
  KIDNEY_R: 0.9 g
  KIDNEY_TOTAL: 1.8 g
  LIVER: 9.5 g
  A/G: 0.9
  ALP: 1736 IU/L
  ALT: 50 IU/L
  AST: 79.4 IU/L
  BUN: 13.6 mg/dL
  CRE: 0.2 mg/dL
  Ca: 11 mg/dL
  Cl: 105.2 meq/L
  DBIL: 0.01 mg/dL
  GLC: 178.4 mg/dL
  IP: 8.3 mg/dL
  K: 4.2 meq/L
  LDH: 109.8 IU/L
  Na: 141.2 meq/L
  PL: 145.8 mg/dL
  RALB: 2.5 g/dL
  TBIL: 0.054 mg/dL
  TC: 77.4 mg/dL
  TG: 80.8 mg/dL
  TP: 5.3 g/dL
  gamma-GTP: 1 IU/L
100 mg/kg, 3 h, dose level Low
  TERMINAL_BW: 192 g
  APTT: 17.6 s
  Bas: 0%
  Eos: 1%
  Fbg: 279.8 mg/dL
  Hb: 13.9 g/dL
  Ht: 42.1%
  Lym: 75%
  MCH: 21 pg
  MCHC: 33%
  MCV: 63.8 fL
  Mono: 3%
  Neu: 20.4%
  PT: 13.5 s
  Plat: 121.2 x10_4/uL
  RBC: 661.2 x10_4/ul
  Ret: 9.1%
  WBC: 73.1 x10_2/uL
  KIDNEY_L: 0.9 g
  KIDNEY_R: 0.8 g
  KIDNEY_TOTAL: 1.7 g
  LIVER: 8 g
  A/G: 0.9
  ALP: 1479.6 IU/L
  ALT: 40.8 IU/L
  AST: 75.4 IU/L
  BUN: 9.4 mg/dL
  CRE: 0.2 mg/dL
  Ca: 11 mg/dL
  Cl: 104.2 meq/L
  DBIL: 0.008 mg/dL
  GLC: 176.4 mg/dL
  IP: 10.2 mg/dL
  K: 4.3 meq/L
  LDH: 80.4 IU/L
  Na: 141.4 meq/L
  PL: 144.4 mg/dL
  RALB: 2.4 g/dL
  TBIL: 0.062 mg/dL
  TC: 75.8 mg/dL
  TG: 40.6 mg/dL
  TP: 5.1 g/dL
  gamma-GTP: 1.4 IU/L
100 mg/kg, 6 h, dose level Low
  TERMINAL_BW: 189.9 g
  APTT: 19.9 s
  Bas: 0%
  Eos: 0.8%
  Fbg: 284 mg/dL
  Hb: 13.9 g/dL
  Ht: 42.5%
  Lym: 76.8%
  MCH: 21.1 pg
  MCHC: 32.6%
  MCV: 64.7 fL
  Mono: 2.2%
  Neu: 19.6%
  PT: 13.4 s
  Plat: 121.9 x10_4/uL
  RBC: 657.4 x10_4/ul
  Ret: 9.3%
  WBC: 73 x10_2/uL
  KIDNEY_L: 0.9 g
  KIDNEY_R: 0.9 g
  KIDNEY_TOTAL: 1.7 g
  LIVER: 8.1 g
  A/G: 0.9
  ALP: 1351.6 IU/L
  ALT: 40.4 IU/L
  AST: 69.8 IU/L
  BUN: 7.6 mg/dL
  CRE: 0.1 mg/dL
  Ca: 10.9 mg/dL
  Cl: 104.4 meq/L
  DBIL: 0.008 mg/dL
  GLC: 186.2 mg/dL
  IP: 10.5 mg/dL
  K: 4.2 meq/L
  LDH: 70 IU/L
  Na: 140.8 meq/L
  PL: 142.8 mg/dL
  RALB: 2.5 g/dL
  TBIL: 0.062 mg/dL
  TC: 78.6 mg/dL
  TG: 34 mg/dL
  TP: 5.1 g/dL
  gamma-GTP: 1.2 IU/L
100 mg/kg, 9 h, dose level Low
  TERMINAL_BW: 190.1 g
  APTT: 18.1 s
  Bas: 0%
  Eos: 1.6%
  Fbg: 285.4 mg/dL
  Hb: 13.4 g/dL
  Ht: 41%
  Lym: 73.8%
  MCH: 20.6 pg
  MCHC: 32.7%
  MCV: 63 fL
  Mono: 2.2%
  Neu: 21.6%
  PT: 13.7 s
  Plat: 122.5 x10_4/uL
  RBC: 651.2 x10_4/ul
  Ret: 9.4%
  WBC: 68 x10_2/uL
  KIDNEY_L: 0.9 g
  KIDNEY_R: 0.9 g
  KIDNEY_TOTAL: 1.7 g
  LIVER: 7.5 g
  A/G: 0.9
  ALP: 1617.4 IU/L
  ALT: 35.8 IU/L
  AST: 65.4 IU/L
  BUN: 8.4 mg/dL
  CRE: 0.1 mg/dL
  Ca: 10.8 mg/dL
  Cl: 105 meq/L
  DBIL: 0.014 mg/dL
  GLC: 181.8 mg/dL
  IP: 10.6 mg/dL
  K: 4.5 meq/L
  LDH: 68.8 IU/L
  Na: 141 meq/L
  PL: 150.6 mg/dL
  RALB: 2.4 g/dL
  TBIL: 0.062 mg/dL
  TC: 75.4 mg/dL
  TG: 65 mg/dL
  TP: 5.2 g/dL
  gamma-GTP: 1 IU/L
[5]
  TERMINAL_BW: 208.4 g
  APTT: 20.1 s
  Bas: 0%
  Eos: 1%
  Fbg: 279 mg/dL
  Hb: 13.3 g/dL
  Ht: 40.5%
  Lym: 69%
  MCH: 20.7 pg
  MCHC: 32.8%
  MCV: 63.2 fL
  Mono: 3.2%
  Neu: 26.2%
  PT: 13.4 s
  Plat: 123.8 x10_4/uL
  RBC: 640.8 x10_4/ul
  Ret: 8.2%
  WBC: 109.3 x10_2/uL
  KIDNEY_L: 0.9 g
  KIDNEY_R: 0.9 g
  KIDNEY_TOTAL: 1.8 g
  LIVER: 9.2 g
  A/G: 0.9
  ALP: 1675 IU/L
  ALT: 41.6 IU/L
  AST: 68.2 IU/L
  BUN: 12 mg/dL
  CRE: 0.2 mg/dL
  Ca: 11.3 mg/dL
  Cl: 104.2 meq/L
  DBIL: 0.01 mg/dL
  GLC: 183.6 mg/dL
  IP: 9.4 mg/dL
  K: 4.1 meq/L
  LDH: 91 IU/L
  Na: 141.2 meq/L
  PL: 158.2 mg/dL
  RALB: 2.5 g/dL
  TBIL: 0.06 mg/dL
  TC: 82.2 mg/dL
  TG: 83.8 mg/dL
  TP: 5.4 g/dL
  gamma-GTP: 1.2 IU/L
